We go through 25 compounds from ChEMBL document CHEMBL5154781, “Discovery of Novel Sertraline Derivatives as Potent Anti-Cryptococcus Agents” (J Med Chem, 2022).

≈ marks a conversion by molar mass, not a printed value. Calls of active or inactive are those of the source. The calls are words filed in the database; no cut-off is given here. Some results are limits rather than exact numbers.

Data set [1] can be described thus: Metabolic stability in mouse liver microsomes assessed as half life. The data set is classed as ADME, Microsome. A general note: Liver microsomes are vesicles of endoplasmic reticulum, rich in cytochrome P450 enzymes.
Data set [2] can be described thus: Metabolic stability in mouse liver microsomes assessed as clearance. The data set is classed as ADME, Microsome.
The nature of data set [3]: […] in ICR mouse model of Cryptococcal meningitis infected with Cryptococcus neoformans H99 assessed as median survival time at 15 mg/kg, IG administered daily (reference value: 11 day). The conditions noted are these: in vivo, po, 264 h. It counts as organism-based.
The subject of data set [4] is Cryptococcus neoformans. The data set is described as follows: microbe, parasite or virus in culture. It counts as functional, organism-based. Particulars: H99, 72 h.
Description: Anti-cryptococcal activity against Cryptococcus neoformans H99 assessed as inhibition of fungal growth incubated for 72 hrs by microdilution method
A short description of data set [5]: microbe, parasite or virus in culture. It counts as functional. The conditions noted are these: Cryptococcus; time 72 hrs.
Description: Anti-cryptococcal activity against Cryptococcus assessed as inhibition of fungal growth incubated for 72 hrs by microdilution method
Data set [6] has as its system Cryptococcus neoformans. The data set is described as follows: Fungicidal activity against Cryptococcus neoformans H99 assessed as fungal growth inhibition incubated upto 72 hrs by time-fungicidal curve assay. The data set is classed as functional.
For data set [7], the system named is [Candida] auris. The data set is described as follows: microbe, parasite or virus in culture. The data set is classed as functional, organism-based. The conditions noted are these: Candidozyma auris, 0030, 48 h.
Description: Antifungal activity against Candida auris 0030 assessed as inhibition of fungal growth incubated for 48 hrs by microdilution method
Data set [8] has as its system Cryptococcus neoformans. The data set is described as follows: Inhibition of Cryptococcus neoformans H99 delta5,6-desaturase assessed as upregulation of ERG2 gene expression at 2 ug/ml incubated for 24 hrs by RT-PCR analysis. The conditions noted are these: dose 2.0 µg/ml.
The test system of data set [9] is Nakaseomyces glabratus. The experiment in a line: microbe, parasite or virus in culture. It counts as functional, organism-based. The conditions noted are these: Nakaseomyces glabratus, 9025, 48 h.
Description: Antifungal activity against Candida glabrata 9025 assessed as inhibition of fungal growth incubated for 48 hrs by microdilution method
The subject of data set [10] is [Candida] auris. The data set is described as follows: microbe, parasite or virus in culture. Particulars: Candidozyma auris, 0029, 48 h. The data set is classed as functional, organism-based.
Description: Antifungal activity against Candida auris 0029 assessed as inhibition of fungal growth incubated for 48 hrs by microdilution method
Data set [11] has as its system Cryptococcus neoformans. The experiment in a line: Inhibition of Cryptococcus neoformans H99 delta5,6-desaturase assessed as upregulation of ERG5 gene expression at 2 ug/ml incubated for 24 hrs by RT-PCR analysis. The conditions noted are these: dose 2.0 µg/ml.
Data set [12] deals with Nakaseomyces glabratus. The experiment in a line: microbe, parasite or virus in culture. It counts as functional, organism-based. The conditions noted are these: Nakaseomyces glabratus, 9073, 48 h.
Description: Antifungal activity against Candida glabrata 9073 assessed as inhibition of fungal growth incubated for 48 hrs by microdilution method
The subject of a further data set is Candida tropicalis. The experiment in a line: microbe, parasite or virus in culture. It counts as functional, organism-based. Particulars: Candida tropicalis, 10186, 48 h.
Data set [13] deals with [Candida] auris. The data set is described as follows: Antifungal activity against Candida auris 15448 assessed as inhibition of fungal growth incubated for 48 hrs by microdilution method. The data set is classed as functional, organism-based. Particulars: Candidozyma auris, 15448, 48 h. (In general: In broth dilution the organism is exposed to a series of concentrations in liquid medium.)

Data set [14] has as its system Candida albicans. The data set is described as follows: microbe, parasite or virus in culture. The conditions noted are these: Candida albicans, 904, 48 h. The data set is classed as functional, organism-based.
Description: Antifungal activity against Candida albicans 904 assessed as inhibition of fungal growth incubated for 48 hrs by microdilution method
The test system of data set [15] is Cryptococcus neoformans. The data set is described as follows: Inhibition of Cryptococcus neoformans H99 delta5,6-desaturase assessed as upregulation of ERG24 gene expression at 2 ug/ml incubated for 24 hrs by RT-PCR analysis. Particulars: dose 2.0 µg/ml.
In data set [16] the test system is Cryptococcus neoformans. The experiment in a line: Inhibition of Cryptococcus neoformans H99 delta5,6-desaturase assessed as upregulation of ERG4 gene expression at 2 ug/ml incubated for 24 hrs by RT-PCR analysis. The conditions noted are these: dose 2.0 µg/ml.
Data set [17] relates to Cryptococcus neoformans. The experiment in a line: Inhibition of Cryptococcus neoformans H99 delta5,6-desaturase assessed as upregulation of ERG1 gene expression at 2 ug/ml incubated for 24 hrs by RT-PCR analysis. The conditions noted are these: dose 2.0 µg/ml.
In data set [18] the test system is Cryptococcus neoformans. The data set is described as follows: Anti-cryptococcal activity against Cryptococcus neoformans H99 assessed as inhibition of fungal growth at 1 to 8 ug/ml incubated upto 72 hrs by time-growth curve assay. The data set is classed as functional, organism-based. The conditions noted are these: dose 1-8 µg/ml.
For data set [19], the system named is Candida albicans. The data set is described as follows: microbe, parasite or virus in culture. The data set is classed as functional, organism-based. Particulars: SC5314, 48 h.
Description: Antifungal activity against Candida albicans SC5314 assessed as inhibition of fungal growth incubated for 48 hrs by microdilution method
Data set [20] relates to Cryptococcus neoformans. The data set is described as follows: Inhibition of Cryptococcus neoformans H99 delta5,6-desaturase assessed as upregulation of ERG3 gene expression at 2 ug/ml incubated for 24 hrs by RT-PCR analysis. Particulars: dose 2.0 µg/ml.
In data set [21] the test system is Candida albicans. The experiment in a line: microbe, parasite or virus in culture. The conditions noted are these: Candida albicans, 0304103, 48 h. The data set is classed as functional, organism-based.
Description: Antifungal activity against Candida albicans 0304103 assessed as inhibition of fungal growth incubated for 48 hrs by microdilution method
Data set [22] relates to Aspergillus fumigatus. The data set is described as follows: microbe, parasite or virus in culture. It counts as functional, organism-based. The conditions noted are these: 023-2, 48 h.
Description: Antifungal activity against Aspergillus fumigatus 023-2 assessed as inhibition of fungal growth incubated for 48 hrs by microdilution method
A further data set concerns Pichia kudriavzevii. The experiment in a line: microbe, parasite or virus in culture. The data set is classed as functional, organism-based. Particulars: Pichia kudriavzevii, 10153, 48 h.
In data set [23] the test system is Cryptococcus neoformans. The data set is described as follows: Inhibition of Cryptococcus neoformans H99 delta5,6-desaturase assessed as upregulation of ERG11 gene expression at 2 ug/ml incubated for 24 hrs by RT-PCR analysis. Particulars: dose 2.0 µg/ml.
The subject of data set [24] is Cryptococcus neoformans. The experiment in a line: Inhibition of biofilm formation in Cryptococcus neoformans H99 at 8 ug/ml incubated for 24 hrs by XTT reduction assay. It counts as functional. Background: Tetrazolium assays rely on reduction of a dye to a coloured formazan, in cell work by metabolically active cells.
The test system of data set [25] is Aspergillus fumigatus. The experiment in a line: microbe, parasite or virus in culture. The data set is classed as functional, organism-based. Particulars: Aspergillus fumigatus, 7544, 48 h.
Description: Antifungal activity against Aspergillus fumigatus 7544 assessed as inhibition of fungal growth incubated for 48 hrs by microdilution method
Data set [26] concerns Cryptococcus neoformans. The experiment in a line: Anti-cryptococcal activity against Cryptococcus neoformans H99 assessed as inhibition of fungal growth at 4 to 8 ug/ml measured for 3 to 48 hrs by time-growth curve assay. Particulars: dose 4-8 µg/ml, time 3-48 hrs. The data set is classed as functional, organism-based.
The test system of data set [27] is Cryptococcus neoformans. The data set is described as follows: Inhibition of biofilm formation in Cryptococcus neoformans H99 at 2 ug/ml incubated for 24 hrs by XTT reduction assay. The data set is classed as functional.
In data set [28] the test system is Cryptococcus neoformans. The experiment in a line: Inhibition of biofilm formation in Cryptococcus neoformans H99 at 0.5 to 8 ug/ml incubated for 24 hrs by XTT reduction assay. The data set is classed as functional, organism-based. The conditions noted are these: dose 0.5-8 µg/ml, DDE = dose-dependent effect.

Description for Candida tropicalis: Antifungal activity against Candida tropicalis 10186 assessed as inhibition of fungal growth incubated for 48 hrs by microdilution method
Description for Pichia kudriavzevii: Antifungal activity against Candida krusei 10153 assessed as inhibition of fungal growth incubated for 48 hrs by microdilution method

For `CN[C@H]1CC[C@@H](c2ccc(Cl)c(Cl)c2)c2ccccc21` [SERTRALINE], the half-life (usually how long it takes for the measured level to halve) in [1] came out at 41.5 min. Also, in data set [2], the CLH came out at 132 µL/min/mg. The MST in data set [3] is 11.5 days.

Turning to `Cl.Clc1ccc(C2CCC(NC3CCCC3)c3ccsc32)cc1Cl` (stereo not given), the IC50 (commonly the point on the concentration scale where inhibition reaches its midpoint) with Cryptococcus neoformans [4] was determined as 8 µg/mL.

Turning to `Cl.Clc1ccc(C2CCC(NCCCC3CCCCC3)c3ccsc32)cc1Cl` (stereo not given), half-maximal inhibition in the data set with Cryptococcus neoformans [4] (IC50) required 2 µg/mL.

As for `C[C@@H]1[C@H](O)[C@@H](C)/C=C/C=C/C=C/C=C/C=C/C=C/C=C/[C@H](O[C@@H]2O[C@H](C)[C@@H](O)[C@H](N)[C@@H]2O)C[C@@H]2O[C@](O)(C[C@@H](O)C[C@@H](O)[C@H](O)CC[C@@H](O)C[C@@H](O)CC(=O)O[C@H]1C)C[C@H](O)[C@H]2C(=O)O` [AMPHOTERICIN B], the MIC50 in data set [5] worked out at 0.13 µg/mL (≈ 0.141 µM). For the same compound, the MFC (commonly the lowest tested concentration that kills the fungus rather than only halting it) with Cryptococcus neoformans [6] came to 4 µg/mL (≈ 4.33 µM). Also, in the data set on Cryptococcus neoformans [4], half-maximal inhibition (IC50) was put at 0.25 µg/mL (≈ 0.271 µM).

Consider `CN(C)C1CCC(c2ccc(Cl)c(Cl)c2)c2sccc21.Cl` (stereo not given), for which the midpoint of inhibition in the data set with Cryptococcus neoformans [4], the IC50, lay at 32 µg/mL.

In the data set on Cryptococcus neoformans [4], `CNC1CCC(c2ccc(Cl)c(Cl)c2)c2sccc21.Cl` (stereo not given) yielded an IC50 of 8 µg/mL.

As for `OC(Cn1cncn1)(Cn1cncn1)c1ccc(F)cc1F` [FLUCONAZOLE], the MIC50 in data set [5] was determined as 1.14 µg/mL (≈ 3.72 µM). Further, the IC50 in data set [Candida] auris [7] was greater than 64 µg/mL; with Nakaseomyces glabratus [9], 16 µg/mL (≈ 52.2 µM); in data set [Candida] auris [10], greater than 64 µg/mL; in the data set with Nakaseomyces glabratus [12] it was 64 µg/mL (≈ 209 µM); in the data set on Candida tropicalis it was greater than 64 µg/mL; in [Candida] auris [13], 4 µg/mL (≈ 13.1 µM). The IC50 in the data set with Candida albicans [14] is greater than 64 µg/mL; with Cryptococcus neoformans [4], 2 µg/mL (≈ 6.53 µM); with Candida albicans [19], 0.25 µg/mL (≈ 0.816 µM); with Candida albicans [21], greater than 64 µg/mL; in the data set with Aspergillus fumigatus [22], greater than 64 µg/mL; in the data set with Pichia kudriavzevii it was 64 µg/mL (≈ 209 µM). In the data set with Aspergillus fumigatus [25], the IC50 is greater than 64 µg/mL. The result with Cryptococcus neoformans [8], in the data set on Cryptococcus neoformans [11], with Cryptococcus neoformans [15], with Cryptococcus neoformans [16], in the data set with Cryptococcus neoformans [17] and in the data set on Cryptococcus neoformans [18] was Active. The outcome in the data set on Cryptococcus neoformans [20] and in the data set on Cryptococcus neoformans [23] was Active. The inhibition (as a rule, the drop in the measured response relative to a control, in per cent) at 8 µg/mL in the data set with Cryptococcus neoformans [24] stood at 50%.

For `Cc1ccc(C2CCC(NCCC3CCCCC3)c3ccsc32)cc1C.Cl` (stereo not given), in the data set on Cryptococcus neoformans [4], inhibition was half-maximal at 32 µg/mL (IC50).

On to `Cl.Clc1ccc(C2CCC(NCc3ccncc3)c3ccsc32)cc1Cl` (stereo not given), for which half-maximal inhibition in the data set on Cryptococcus neoformans [4] (IC50) was put at 16 µg/mL.

For the compound `Nc1nc(=O)[nH]cc1F` [FLUCYTOSINE], 2 µg/mL (≈ 15.5 µM) corresponded to half-maximal inhibition with Cryptococcus neoformans [4] (IC50).

Consider `Cl.Clc1ccc(C2CCC(NCCC3CCCCC3)c3ccsc32)c(Cl)c1` (stereo not given), for which 4 µg/mL corresponded to half-maximal inhibition with Cryptococcus neoformans [4] (IC50).

Compound `Cl.O=C(CNC1CCC(c2ccc(Cl)c(Cl)c2)c2sccc21)N1CCCCC1` (stereo not given) yielded a half-inhibitory concentration (IC50) in the data set on Cryptococcus neoformans [4] of 8 µg/mL.

As to `Cl.Clc1ccc(C2CCC(NCC3CCCCC3)c3ccsc32)cc1Cl` (stereo not given), in the data set with Cryptococcus neoformans [4], inhibition was half-maximal at 2 µg/mL (IC50).

On to `Cl.Clc1ccc(C2CCC(NCc3ccccc3)c3ccsc32)cc1Cl` (stereo not given), for which the IC50 in the data set on Cryptococcus neoformans [4] is 32 µg/mL.

In the case of `O=C(c1ccc(F)cc1)C1CCN(CCn2c(=O)[nH]c3ccccc3c2=O)CC1` [KETANSERIN], the half-life in data set [1] came out at 20.1 min. The CLH in data set [2] amounted to 271 µL/min/mg.

Take `Cl.Clc1ccc(C2CCC(NC3CCOCC3)c3ccsc32)cc1Cl` (stereo not given): 4 µg/mL corresponded to half-maximal inhibition in the data set on Cryptococcus neoformans [4] (IC50).

As to `Cl.Clc1ccc(C2CCC(NCCC3CCCCC3)c3ccsc32)cc1` (stereo not given), the midpoint of inhibition in the data set on Cryptococcus neoformans [4], the IC50, lay at 64 µg/mL.

For `Cl.Clc1ccc(C2CCC(NCCC3CCCCC3)c3ccsc32)cc1Cl` (stereo not given), the result in the data set with Cryptococcus neoformans [26] was Active. Moreover, in the data set with Cryptococcus neoformans [27], the inhibition at 2 µg/mL amounted to 50%. Besides, half-maximal inhibition in the data set with Cryptococcus neoformans [4] (IC50) was put at 1 µg/mL. Further, the inhibition entry in the data set on Cryptococcus neoformans [28] was “Dde”.

In the data set on Cryptococcus neoformans [4], `Cl.Clc1ccc(C2CCC(NCc3ncccn3)c3ccsc32)cc1Cl` (stereo not given) registered an IC50 of 32 µg/mL.

As to `CNC1CC(c2ccc(Cl)c(Cl)c2)c2ccccc21.Cl` (stereo not given), the midpoint of inhibition in the data set with Cryptococcus neoformans [4], the IC50, lay at 16 µg/mL.

`Cl.Clc1ccc(C2CCC(NC3CCCCC3)c3ccsc32)cc1Cl` (stereo not given) had an IC50 with Cryptococcus neoformans [4] of 8 µg/mL.

`CC(C)NC1CCC(c2ccc(Cl)c(Cl)c2)c2sccc21.Cl` (stereo not given) showed a 50% inhibitory concentration (IC50) with Cryptococcus neoformans [4] of 16 µg/mL.

As for `CN1CCC(CCNC2CCC(c3ccc(Cl)c(Cl)c3)c3sccc32)CC1.Cl` (stereo not given), in the data set on Cryptococcus neoformans [4], half-maximal inhibition (IC50) was put at 2 µg/mL.

In turn, `CC(C)(C)CNC1CCC(c2ccc(Cl)c(Cl)c2)c2sccc21.Cl` (stereo not given) yielded an IC50 in the data set with Cryptococcus neoformans [4] of 4 µg/mL.

As to `Cl.Clc1ccc(C2CCC(NC3CC3)c3ccsc32)cc1Cl` (stereo not given), half-maximal inhibition in the data set with Cryptococcus neoformans [4] (IC50) required 16 µg/mL.
